In ChEMBL document CHEMBL5550087, “Development of tenofovir monobenzyl ester phosphonoamidate prodrugs with improved anti-hepatitis B virus activity and intrahepatic tenofovir enrichment” (Bioorg Med Chem, 2024):
Values belong to the molecule of their own block, whether it stands above or below them.

How the values were obtained:
[1] = Drug uptake in ICR mouse liver at 50 mg/kg, ig measured after 3 hrs by LC-MS/MS analysis; type: ADME, organism-based; conditions: po, read-out: Drug uptake
[2] = Plasma concentration in ICR mouse at 50 mg/kg, ig measured after 3 hrs by LC-MS/MS analysis; type: ADME, organism-based; conditions: po
[3] = Ratio of drug level in ICR mouse liver to plasma at 50 mg/kg, ig measured after 3 hrs by LC-MS/MS analysis; type: ADME, organism-based; conditions: liver and plasma, po
[4] = Drug metabolism in ICR mouse liver assessed as ratio of tenofovir level to parent compound level at 50 mg/kg, ig measured after 3 hrs by LC-MS/MS analysis; type: ADME, organism-based; conditions: in vivo, po
[5] = Drug metabolism in ICR mouse plasma assessed as ratio of tenofovir level to parent compound level at 50 mg/kg, ig measured after 3 hrs by LC-MS/MS analysis; type: ADME, organism-based; conditions: in vivo, po
[6] = Drug metabolism in ICR mouse liver assessed as tenofovir metabolite level at 50 mg/kg, ig measured after 3 hrs by LC-MS/MS analysis; type: ADME, organism-based; conditions: in vivo, po
[7] = Drug metabolism in ICR mouse plasma assessed as tenofovir metabolite level at 50 mg/kg, ig measured after 3 hrs by LC-MS/MS analysis; type: ADME, organism-based; conditions: in vivo, po
[8] = Drug metabolism in ICR mouse assessed as ratio of tenofovir metabolite level in liver to plasma at 50 mg/kg, ig measured after 3 hrs by LC-MS/MS analysis; type: ADME, organism-based; conditions: other tissue, po
[9] = system: Hepatitis B virus; assay: Antiviral activity against Hepatitis B virus infected in human HepG2.2.15 cells assessed as inhibition of viral DNA replication treated from day 2 to day 8 by real time fluorescence qPCR analysis; type: functional, organism-based
[10] = Cytotoxicity against human HepG2.2.15 cells assessed as reduction in cell viability treated from day 2 to day 8 by CellTiter-Blue reagent based fluorescence analysis; type: toxicity, HepG2 2.2.15; conditions: time 6 day
[11] = Stability of the compound in simulated gastric fluid at 10 uM incubated at 37 degC for upto 1440 mins by LC-MS/MS analysis; type: ADME; conditions: simulated gi fluid, 24 h
[12] = Stability of the compound in simulated intestinal fluid at 10 uM incubated at 37 degC for upto 1440 mins by LC-MS/MS analysis; type: ADME; conditions: simulated gi fluid, 24 h
[13] = Stability of the compound in human plasma at 2 uM incubated for upto 120 mins by LC-MS/MS analysis; type: ADME, cell-free; conditions: 2 h
[14] = Drug metabolism in human liver S9 fraction assessed as tenofovir metabolite formation at 1 uM incubated for upto 60 mins by LC-MS/MS analysis; type: ADME, subcellular; conditions: s9, 1 h
[15] = biological target: Voltage-gated inwardly rectifying potassium channel KCNH2 (Homo sapiens, UniProt Q12809); assay: Inhibition of hERG expressed in CHO cells assessed as inhibition of channel current measured at holding potential of -80 mV by whole cell patch clamp analysis; type: toxicity, cell-based
[16] = Mutagenicity in Salmonella typhimurium TA98 assessed as revertant colonies at 1.5 to 1000 ug/well incubated for 66.5 hrs in the dark by mini-Ames test; type: toxicity; conditions: salmonella enterica subsp. enterica serovar typhimurium, dose 1.5-1000 µg
[17] = Mutagenicity in Salmonella typhimurium TA98 assessed as revertant colonies at 1.5 to 1000 ug/well incubated for 66.5 hrs in the dark in presence of S9 fraction by mini-Ames test; type: toxicity, subcellular; conditions: salmonella enterica subsp. enterica serovar typhimurium, s9, 66.5 h, dose 1.5-1000 µg
[18] = Mutagenicity in Salmonella typhimurium TA100 assessed as revertant colonies at 1.5 to 1000 ug/well incubated for 66.5 hrs in the dark by mini-Ames test; type: toxicity; conditions: salmonella enterica subsp. enterica serovar typhimurium, dose 1.5-1000 µg
[19] = Mutagenicity in Salmonella typhimurium TA100 assessed as revertant colonies at 1.5 to 1000 ug/well incubated for 66.5 hrs in the dark in presence of S9 fraction by mini-Ames test; type: toxicity, subcellular; conditions: salmonella enterica subsp. enterica serovar typhimurium, s9, 66.5 h, dose 1.5-1000 µg
[20] = Drug metabolism in Sprague-Dawley rat assessed as terminal elimination half life of tenofovir metabolite at 5 mg/kg, iv measured for 24 hrs by LC-MS/MS analysis; type: ADME, organism-based; conditions: in vivo
[21] = Drug metabolism in Sprague-Dawley rat assessed as clearance of tenofovir metabolite at 5 mg/kg, iv measured for 24 hrs by LC-MS/MS analysis; type: ADME, organism-based; conditions: in vivo
[22] = Drug metabolism in Sprague-Dawley rat assessed as volume of distribution of tenofovir metabolite at 5 mg/kg, iv measured for 24 hrs by LC-MS/MS analysis; type: ADME, organism-based; conditions: in vivo
[23] = Drug metabolism in Sprague-Dawley rat assessed as MRT(0 to t) of tenofovir metabolite at 5 mg/kg, iv measured for 24 hrs by LC-MS/MS analysis; type: ADME, organism-based; conditions: in vivo
[24] = Drug metabolism in Sprague-Dawley rat assessed as terminal elimination half life of tenofovir metabolite at 25 mg/kg, ig measured for 24 hrs by LC-MS/MS analysis; type: ADME, organism-based; conditions: in vivo, po
[25] = Drug metabolism in Sprague-Dawley rat assessed as Tmax of tenofovir metabolite at 25 mg/kg, ig measured for 24 hrs by LC-MS/MS analysis; type: ADME, organism-based; conditions: in vivo, po
[26] = Drug metabolism in Sprague-Dawley rat assessed as Cmax of tenofovir metabolite at 25 mg/kg, ig measured for 24 hrs by LC-MS/MS analysis; type: ADME, organism-based; conditions: in vivo, po
[27] = Drug metabolism in Sprague-Dawley rat assessed as bioavailability of tenofovir metabolite at 25 mg/kg, ig measured for 24 hrs by LCMS/MS analysis; type: ADME, organism-based; conditions: in vivo, po
[28] = Drug metabolism in Sprague-Dawley rat plasma assessed as terminal elimination half life of tenofovir metabolite at 25 mg/kg, ig measured for 12 hrs by LC-MS/MS analysis; type: ADME, organism-based; conditions: in vivo, po
[29] = Drug metabolism in Sprague-Dawley rat liver assessed as terminal elimination half life of tenofovir metabolite at 25 mg/kg, ig measured for 12 hrs by LC-MS/MS analysis; type: ADME, organism-based; conditions: in vivo, po
[30] = Drug metabolism in Sprague-Dawley rat kidney assessed as terminal elimination half life of tenofovir metabolite at 25 mg/kg, ig measured for 12 hrs by LC-MS/MS analysis; type: ADME, organism-based; conditions: in vivo, po
[31] = Drug metabolism in Sprague-Dawley rat plasma assessed as Tmax of tenofovir metabolite at 25 mg/kg, ig measured for 12 hrs by LC-MS/MS analysis; type: ADME, organism-based; conditions: in vivo, po
[32] = Drug metabolism in Sprague-Dawley rat liver assessed as Tmax of tenofovir metabolite at 25 mg/kg, ig measured for 12 hrs by LC-MS/MS analysis; type: ADME, organism-based; conditions: in vivo, po
[33] = Drug metabolism in Sprague-Dawley rat kidney assessed as Tmax of tenofovir metabolite at 25 mg/kg, ig measured for 12 hrs by LC-MS/MS analysis; type: ADME, organism-based; conditions: in vivo, po
[34] = Drug metabolism in Sprague-Dawley rat plasma assessed as Cmax of tenofovir metabolite at 25 mg/kg, ig measured for 12 hrs by LC-MS/MS analysis; type: ADME, organism-based; conditions: in vivo, po
[35] = Drug metabolism in Sprague-Dawley rat liver assessed as Cmax of tenofovir metabolite at 25 mg/kg, ig measured for 12 hrs by LC-MS/MS analysis; type: ADME, organism-based; conditions: in vivo, po
[36] = Drug metabolism in Sprague-Dawley rat kidney assessed as Cmax of tenofovir metabolite at 25 mg/kg, ig measured for 12 hrs by LC-MS/MS analysis; type: ADME, organism-based; conditions: in vivo, po

Voltage-gated inwardly rectifying potassium channel KCNH2, sequence (Q12809 whole entry): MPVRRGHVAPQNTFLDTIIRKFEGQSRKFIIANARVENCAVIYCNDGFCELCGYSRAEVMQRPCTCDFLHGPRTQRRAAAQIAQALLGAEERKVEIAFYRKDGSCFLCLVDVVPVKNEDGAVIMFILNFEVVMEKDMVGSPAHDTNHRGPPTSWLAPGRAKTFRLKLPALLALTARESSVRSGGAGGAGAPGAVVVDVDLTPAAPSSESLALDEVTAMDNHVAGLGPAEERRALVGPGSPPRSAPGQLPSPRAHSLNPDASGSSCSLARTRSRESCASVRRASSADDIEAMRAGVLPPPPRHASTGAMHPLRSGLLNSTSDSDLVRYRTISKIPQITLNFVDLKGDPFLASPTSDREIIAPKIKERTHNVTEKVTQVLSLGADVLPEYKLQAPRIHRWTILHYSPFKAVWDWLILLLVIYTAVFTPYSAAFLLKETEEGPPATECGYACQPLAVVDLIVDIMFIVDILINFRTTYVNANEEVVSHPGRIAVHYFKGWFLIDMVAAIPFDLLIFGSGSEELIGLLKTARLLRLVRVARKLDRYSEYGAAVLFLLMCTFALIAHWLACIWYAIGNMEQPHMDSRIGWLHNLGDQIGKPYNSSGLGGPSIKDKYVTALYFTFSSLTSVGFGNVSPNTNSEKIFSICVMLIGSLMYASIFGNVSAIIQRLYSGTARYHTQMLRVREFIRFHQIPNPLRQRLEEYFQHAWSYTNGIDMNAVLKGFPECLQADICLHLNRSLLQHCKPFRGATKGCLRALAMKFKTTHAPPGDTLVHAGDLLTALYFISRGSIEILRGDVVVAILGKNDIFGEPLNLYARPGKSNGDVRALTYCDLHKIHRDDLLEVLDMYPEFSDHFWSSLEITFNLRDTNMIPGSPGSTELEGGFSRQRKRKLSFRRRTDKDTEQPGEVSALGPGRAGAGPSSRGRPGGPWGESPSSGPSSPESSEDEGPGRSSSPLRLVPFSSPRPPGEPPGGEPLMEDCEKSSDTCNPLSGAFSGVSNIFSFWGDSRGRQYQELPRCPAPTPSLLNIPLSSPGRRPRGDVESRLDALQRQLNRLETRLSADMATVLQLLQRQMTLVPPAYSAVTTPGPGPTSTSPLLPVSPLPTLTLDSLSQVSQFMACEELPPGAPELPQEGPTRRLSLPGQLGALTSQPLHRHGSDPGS

Structure (SMILES): CC(C)OC(=O)[C@H](C)NP(=O)(CO[C@H](C)Cn1cnc2c(N)ncnc21)OCc1ccccc1 (some centres not stated)
concentration at 3 h [1]: 375 nM
concentration at 3 h [2]: 104 nM
Kp at 3 h [3]: 3.61
Ratio [4]: 166
Ratio [5]: 0.72
Drug metabolism [6]: 67.251 nmol/mL
Drug metabolism [7]: 0.075 nmol/mL
Ratio [8]: 896

Structure (SMILES): CC(C)OC(=O)CNP(=O)(CO[C@H](C)Cn1cnc2c(N)ncnc21)OCc1ccccc1 (single isomer, unassigned; 1a)
EC50 [9]: > 1000 nM
CC50 at 144 h [10]: > 100000 nM

Structure (SMILES): COC(=O)CNP(=O)(CO[C@H](C)Cn1cnc2c(N)ncnc21)OCc1ccccc1 (single isomer, unassigned; 2b)
EC50 [9]: > 1000 nM
CC50 at 144 h [10]: > 100000 nM

Structure (SMILES): C[C@H](Cn1cnc2c(N)ncnc21)OCP(=O)(NCC(=O)Oc1ccccc1)OCc1ccccc1 (single isomer, unassigned; 4b)
EC50 [9]: 848 nM
CC50 at 144 h [10]: > 100000 nM

Structure (SMILES): Cc1ccccc1COP(=O)(CO[C@H](C)Cn1cnc2c(N)ncnc21)N[C@@H](C)C(=O)OC(C)C (single isomer, unassigned; 5a)
EC50 [9]: > 1000 nM
CC50 at 144 h [10]: > 100000 nM

Structure (SMILES): CC(C)OC(=O)[C@H](C)N[P@](=O)(CO[C@H](C)Cn1cnc2c(N)ncnc21)Oc1ccccc1 [TENOFOVIR ALAFENAMIDE]
EC50 [9]: 17.8 nM
CC50 at 144 h [10]: > 100000 nM
Drug metabolism [14]: Metabolite_Detected
IC50 [15]: > 10000 nM
t1/2 [20]: 4.59 h
CL [21]: 42.8 mL/min/kg
Vd [22]: 16.1 L/kg
MRT(t) [23]: 1.67 h
t1/2 [24]: 5.46 h
Tmax [25]: 0.375 h
Cmax [26]: 1370 ng/mL
F [27]: 27.7%
t1/2 [28]: 4.44 h
t1/2 [29]: 6.2 h
t1/2 [30]: 5.2 h
Tmax [31]: 0.25 h
Tmax [32]: 0.25 h
Tmax [33]: 0.25 h
Cmax [34]: 4027 ng/mL
Cmax [35]: 29820 ng/mL
Cmax [36]: 16471 ng/mL

Now from value to molecule, other results behind:

EC50 [9]: 290 nM
Structure (SMILES): CC(C)OC(=O)CNP(=O)(CO[C@H](C)Cn1cnc2c(N)ncnc21)OCc1ccccc1 (single isomer, unassigned; 1b)
CC50 at 144 h [10]: > 100000 nM

EC50 [9]: 418 nM
Structure (SMILES): COC(=O)CNP(=O)(CO[C@H](C)Cn1cnc2c(N)ncnc21)OCc1ccccc1 (single isomer, unassigned; 2a)
CC50 at 144 h [10]: > 100000 nM

EC50 [9]: 3.39 nM
Stability [11]: Stable
Stability [12]: Stable
Stability [13]: Stable
Drug metabolism [14]: Metabolite_Detected
t1/2 [20]: 2.89 h
CL [21]: 348 mL/min/kg
Vd [22]: 86.6 L/kg
MRT(t) [23]: 0.921 h
t1/2 [24]: 10.7 h
Tmax [25]: 0.147 h
Cmax [26]: 98.35 ng/mL
F [27]: 32.7%
t1/2 [28]: 6.58 h
t1/2 [29]: 6.77 h
t1/2 [30]: 322 h
Tmax [31]: 0.25 h
Tmax [32]: 0.25 h
Tmax [33]: 0.25 h
Cmax [34]: 279 ng/mL
Cmax [35]: 10589 ng/mL
Cmax [36]: 3234 ng/mL
Structure (SMILES): CC(C)OC(=O)[C@H](C)NP(=O)(CO[C@H](C)Cn1cnc2c(N)ncnc21)OCc1ccccc1 (single isomer, unassigned; 3a)
CC50 at 144 h [10]: > 100000 nM
IC50 [15]: > 10000 nM
Activity [16]: Non-Toxic
Activity [17]: Non-Toxic
Activity [18]: Non-Toxic
Activity [19]: Non-Toxic

EC50 [9]: 6 nM
Stability [11]: Stable
Stability [12]: Stable
Stability [13]: Stable
Drug metabolism [14]: Metabolite_Detected
t1/2 [20]: 2 h
CL [21]: 435 mL/min/kg
Vd [22]: 67.4 L/kg
MRT(t) [23]: 0.489 h
t1/2 [24]: 2.84 h
Tmax [25]: 0.375 h
Cmax [26]: 143 ng/mL
F [27]: 31.5%
t1/2 [28]: 6.56 h
t1/2 [29]: 10.7 h
t1/2 [30]: 26.2 h
Tmax [31]: 0.25 h
Tmax [32]: 0.25 h
Tmax [33]: 0.25 h
Cmax [34]: 216 ng/mL
Cmax [35]: 10557 ng/mL
Cmax [36]: 4663 ng/mL
Structure (SMILES): CC(C)OC(=O)[C@H](C)NP(=O)(CO[C@H](C)Cn1cnc2c(N)ncnc21)OCc1ccccc1 (single isomer, unassigned; 3b)
CC50 at 144 h [10]: > 100000 nM
IC50 [15]: > 30000 nM
Activity [16]: Non-Toxic
Activity [17]: Non-Toxic
Activity [18]: Non-Toxic
Activity [19]: Non-Toxic

EC50 [9]: 214 nM
Structure (SMILES): C[C@H](Cn1cnc2c(N)ncnc21)OCP(=O)(NCC(=O)Oc1ccccc1)OCc1ccccc1 (single isomer, unassigned; 4a)
CC50 at 144 h [10]: > 100000 nM

EC50 [9]: 275 nM
Structure (SMILES): Cc1ccccc1COP(=O)(CO[C@H](C)Cn1cnc2c(N)ncnc21)N[C@@H](C)C(=O)OC(C)C (single isomer, unassigned; 5b)
CC50 at 144 h [10]: > 100000 nM
IC50 [15]: > 10000 nM
